Six substances from publication PMC3655598, “Application of IgG-Derived Natural Treg Epitopes (IgG Tregitopes) to Antigen-Specific Tolerance Induction in a Murine Model of Type 1 Diabetes” (Journal of Diabetes Research, 2013) can be followed below.

Like-named read-outs stand apart in the source and are kept apart here. Marks after values point to notes of the source that are not given here. No end group written: not given here.

One assay relates to PBMC. The assay can be described thus: two-step IFNγ ELISpot assay with human PBMC.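 Further: background is unstimulated wells, counts given per 1 million cells, 200,000–250,000 cells per well, restimulated at 37°C, read by Zeiss plate reader, IL-2 and IL-7 fed during pre-culture.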 The class given is cell-based. The settings on record: 7 d pre-culture with GAD65 peptide pool, 48 h restimulation, triplicate.
The target of the next assay is DRB1*0101 (Homo sapiens, UniProt P01903+P01911, A100R/D57E/F55L/F60I/F76Y/I96L/L162R/M171V/P40L/Q125E/R42F/V115G/Y59C). The assay can be described thus: biochemical.
A further assay concerns the target T1, DRB1*1501 (Homo sapiens, UniProt P01903+P01911).
T1 construct: gift: William Kwok, Benaroya Institute, Seattle
The assay can be described thus: competition-based HLA binding assay.

Assay [1] has as its target T2, DRB1*0701 (Homo sapiens, UniProt P01903+P01911, A100R/A102G/A103Q/D57E/D86V/E43K/F76Y/K127E/L162R/M171V/P40G/Q125H/Q99D/R33Q/R42Y/R54Q/S133A/S66F/T210M/V115G/Y107V/Y59L/Y89S). The assay can be described thus: biochemical.
For the next assay, the target named is DRB1*0401 (Homo sapiens, UniProt P01903+P01911, A100K/A169T/F76Y/I96L/K127E/L162R/M171V/N62H/P40V/Q125Y/R42H/S133A/S149N/S66Y/V115G/V209L/W38E). The settings on record: read-out: DRB1*0401 IC50; competition with biotin-Flu-HA 306–318 at 0.1 μM, 24 h, 37°C; NB = non-binder.
The target of assay [2] is T2, DRB1*0701. The settings on record: read-out: DRB1*0701 IC50; competition with biotin-Flu-HA 306–318 at 1 μM, 24 h, 37°C; NB = non-binder.
[3] abbreviates: Negative Control 674 PBMC, Tregitope + (5 μg/mL each human Tregitopes 167 and 289).
[4] abbreviates: Negative Control 674 PBMC, Tregitope −.
[5] abbreviates: Subject D1100H (T1D) PBMC, Tregitope + (5 μg/mL each human Tregitopes 167 and 289).
[6] abbreviates: Subject D1100H (T1D) PBMC, Tregitope −.
The mark [7] stands for this setting: Subject D1101H (T1D) PBMC, Tregitope + (5 μg/mL each human Tregitopes 167 and 289).
Setting [8] is: Subject D1101H (T1D) PBMC, Tregitope −.
Where [9] appears, read: Subject D1104H (T1D) PBMC, Tregitope + (5 μg/mL each human Tregitopes 167 and 289).
[10] abbreviates: Subject D1104H (T1D) PBMC, Tregitope −.
[11] abbreviates: Subject D1106H (T1D) PBMC, Tregitope + (5 μg/mL each human Tregitopes 167 and 289).
Where [12] appears, read: Subject D1106H (T1D) PBMC, Tregitope −.
The mark [13] stands for this setting: Subject D1107H (T1D) PBMC, Tregitope + (5 μg/mL each human Tregitopes 167 and 289).
Setting [14] is: Subject D1107H (T1D) PBMC, Tregitope −.
Setting [15] is: Negative Control 668 PBMC, Tregitope + (5 μg/mL each human Tregitopes 167 and 289).
Setting [16] is: Negative Control 668 PBMC, Tregitope −.
Setting [17] is: Negative Control 669 PBMC, Tregitope + (5 μg/mL each human Tregitopes 167 and 289).
[18] abbreviates: Negative Control 669 PBMC, Tregitope −.
[19] abbreviates: Negative Control 670 PBMC, Tregitope + (5 μg/mL each human Tregitopes 167 and 289).
Where [20] appears, read: Negative Control 670 PBMC, Tregitope −.
Where [21] appears, read: Subject D1105H (T1D) PBMC, Tregitope + (5 μg/mL each human Tregitopes 167 and 289).
Setting [22] is: Subject D1105H (T1D) PBMC, Tregitope −.

Consider “GAD65 protein: whole GAD65 protein (Kronus, UK)”, for which the “IFNγ ELISpot SFC over background” value is on record as 818 SFC over BG/10^6 in the assay on PBMC (setting [3]); 44 SFC over BG/10^6 in the assay on PBMC (setting [4]); 77 SFC over BG/10^6 with PBMC (setting [5]); 413 SFC over BG/10^6 in the assay on PBMC (setting [6]); 59 SFC over BG/10^6 in the assay on PBMC (setting [7]); 37 SFC over BG/10^6 in the assay on PBMC (setting [8]). Moreover, the “IFNγ ELISpot SFC over background” value worked out at 69 SFC over BG/10^6 in the assay on PBMC (setting [9]); 32 SFC over BG/10^6 in the assay with PBMC (setting [10]); 591 SFC over BG/10^6 with PBMC (setting [11]); 670 SFC over BG/10^6 in the assay on PBMC (setting [12]); 46 SFC over BG/10^6 in the assay on PBMC (setting [13]); 95 SFC over BG/10^6 in the assay with PBMC (setting [14]).
With “GAISNMYAMMIARFKMFPEVKEKGM [GAD65_243–267]”, the IC50 against DRB1*0101 is below 5 µM; on DRB1*1501 it was below 5 µM; at DRB1*0701 [1], 8.7 µM.
Take LGDKVNFFRMVISNPAATHQD [GAD65_550–570]: the concentration for half-maximal inhibition (IC50) on DRB1*0401 is below 25 µM. For the same substance, the “IFNγ ELISpot SFC over background” value with PBMC (setting [15]) is 440 SFC over BG/10^6; in the assay with PBMC (setting [16]) it was 312 SFC over BG/10^6; in the assay with PBMC (setting [17]), 30** SFC over BG/10^6; in the assay with PBMC (setting [18]), 144 SFC over BG/10^6; in the assay on PBMC (setting [19]), −90 SFC over BG/10^6; in the assay with PBMC (setting [20]), 25 SFC over BG/10^6. For the same substance, the “IFNγ ELISpot SFC over background” value in the assay on PBMC (setting [3]) came to 431 SFC over BG/10^6; with PBMC (setting [4]) it was 490 SFC over BG/10^6; in the assay with PBMC (setting [5]), 141 SFC over BG/10^6; in the assay on PBMC (setting [6]), 199 SFC over BG/10^6; in the assay with PBMC (setting [7]), 100 SFC over BG/10^6; with PBMC (setting [8]), 126 SFC over BG/10^6. Further, the “IFNγ ELISpot SFC over background” value is 101 SFC over BG/10^6 with PBMC (setting [9]); 146 SFC over BG/10^6 with PBMC (setting [10]); 228* SFC over BG/10^6 in the assay with PBMC (setting [21]); 352 SFC over BG/10^6 in the assay with PBMC (setting [22]); 113 SFC over BG/10^6 in the assay with PBMC (setting [11]); 88 SFC over BG/10^6 in the assay on PBMC (setting [12]). The “IFNγ ELISpot SFC over background” value is listed as 1** SFC over BG/10^6 in the assay on PBMC (setting [13]) and 160 SFC over BG/10^6 in the assay on PBMC (setting [14]).
“NMFTYEIAPVFVLLEYVTLKKMRE [GAD65_203–226]”: the IC50 on DRB1*0401 was below 25 µM. Further, the “IFNγ ELISpot SFC over background” value in the assay on PBMC (setting [15]) is recorded as 460 SFC over BG/10^6; in the assay with PBMC (setting [16]) it was 475 SFC over BG/10^6; in the assay with PBMC (setting [17]) it was 52 SFC over BG/10^6; with PBMC (setting [18]) it was 109 SFC over BG/10^6; with PBMC (setting [19]), 82** SFC over BG/10^6; in the assay with PBMC (setting [20]), 329 SFC over BG/10^6. The “IFNγ ELISpot SFC over background” value with PBMC (setting [3]) was 109 SFC over BG/10^6; with PBMC (setting [4]), 168 SFC over BG/10^6; in the assay on PBMC (setting [7]), 51 SFC over BG/10^6; with PBMC (setting [8]), 157 SFC over BG/10^6; in the assay on PBMC (setting [9]) it was 154 SFC over BG/10^6; in the assay with PBMC (setting [10]), 221 SFC over BG/10^6. The “IFNγ ELISpot SFC over background” value in the assay on PBMC (setting [21]) is given as 138* SFC over BG/10^6; in the assay with PBMC (setting [22]), 245 SFC over BG/10^6; in the assay on PBMC (setting [11]), 138 SFC over BG/10^6; in the assay with PBMC (setting [12]), 207 SFC over BG/10^6.
Take TTVYGAFDPLLAVAD [GAD65_338–352]: the IC50 was 4.1 µM against DRB1*0101; 31.3 µM at DRB1*1501 (competition with biotin-MBP 84–102 at 0.5 μM, 24 h, 37°C, NB = non-binder, read-out: DRB1*1501 IC50); above 50 µM at DRB1*0401; above 50 µM at DRB1*0701 [2].
Regarding VDVFKLWLMWRAKGTTGFEAH [GAD65_450–470], the IC50 against DRB1*0101 is 25.4 µM; on DRB1*1501 it was 11.4 µM; at DRB1*0401, above 50 µM; at DRB1*0701 [1] it was 10.2 µM.

A word on the IC50: it is the concentration at which inhibition is half-maximal.
